Measured values taken from patent US12250948B2, “Methods for the control of arthropods using near-ideal gas phase hydrogen peroxide” (Synexis LLC, priority 2013, dated 2025).
Like-named read-outs stand apart in the source and are kept apart here.

How the values were obtained:
[1] = system: Crickets; settings: PHPG 0.4 ppm
[2] = system: Mosquitoes; settings: PHPG 0.2 ppm
[3] = system: Lice and nits
[4] = system: Yellow Jackets and Nest; settings: PHPG 0.3 ppm
[5] = system: Brown Dog Tick; test: Laboratory chamber test of PHPG, knockdown and mortality; assay type: in vivo; settings: PHPG 0.6 ppm
Protocol: (§1) The effects of Purified Hydrogen Peroxide Gas (PHPG) on selected arthropod species is performed to determine the efficacy on controlling an arthropod using the indirect dispersion of PHPG in a space. In these experiments, the knockdown and mortality rates in mosquitoes, bed bugs, termites, ants, moths, house flies, and spiders is assessed.
(§2) Black wood ants, house flies (adult and pupae), large saturniid moths, termites (soldier and living), and cellar spiders are obtained from Carolina Supplies and shipped overnight. All organisms are fed prior to shipping from Carolina Supplies. Bed bugs and mosquitoes are sourced locally due to government shipping restrictions. The test samples are stored in a cabinet at ambient temperature and humidity until use in the study. The samples are labeled and color-coded for easy identification. In certain experiments, specimens of wild caught arthropods are used in the controlled experiments, including for example Brazilian cockroaches.
(§3) All testing is conducted in a sealed, Static Dissipative PVC chamber, Terra Universal (Fullerton, CA) Model 3305-10F: 59 inches W×24 inches D×25 inches H. With additional airlock Terra Universal Model 1680-81B 11.5 inches W×10 inches D×10.5 inches 1-1. Arthropods are placed inside transfer containers (pint size paper containers). The top and bottom diameters of these containers are 3.75 and 2.87 inches respectively with a height of 3.5 inches. All arthropods are released once the airlock is sealed. Arthropods are allowed to recover following PHPG exposure and observed in 8 oz glass Pyrex@(Tewksbury, MA) containers with sealed glass lids.
Three replicates of ten of each arthropod are subjected to PHPG. […] If at 24 hours mortality is less 90%, additional readings are taken following 48 hours of PHPG exposure. […] Time frames are recorded for each replicate. […]
If all ten arthropods are recorded as knocked down or deceased during any observation before 15 minutes have elapsed, subsequent observations are not made. […] All dead arthropods are confirmed by probing or agitation to make sure that they are unable to move (any that show movement visible to the naked eye are recorded as moribund). Arthropods that can crawl or right themselves when placed on their backs are recorded as being alive.
(§4) After the knockdown counts are complete, the arthropods are maintained in the laboratory at ambient temperature and humidity conditions with a normal 8:16 light:dark cycle for 24 hours. Additional mortality readings are taken at 48 hours if less than 90% mortality is recorded at 24 hours. A 48 hour reading depends upon control mortality remaining less than 10%. Temperature and humidity are recorded in the treatment area, and in the laboratory where the arthropods are subsequently held for the duration of the test.

[6] = system: arthropods including crickets, ants, spiders, and house flies; test: Real world test of PHPG in 1400 sq ft Pool House; settings: after 27 hours
Excerpt: All PHPG concentration readings take place with Draeger products. A Pac III, Polytron 7000 or Draeger Tubes are utilized in all tests, generally according to manufacturer's instructions. […] Most commonly, Draeger Tubes are used after clipping on both ends and placement in a ACCURO™ Pump. Per manufacturer instructions, the tubes are pumped 100 times and the level of PHPG determined by observing the color change in the crystals.
Two PHPG generating devices were placed in the space for an initial cleansing and to establish levels.

[7] = system: Stink Bugs; settings: PHPG 0.3 ppm
[8] = system: House Flies; settings: PHPG 0.2 ppm
[9] = system: Carpenter Ants; settings: PHPG 1.0 ppm
Protocol: as §1, §2, §3
(§5) Three replicates of ten of each arthropod are subjected to PHPG. An additional three replicates are subjected to a non PHPG producing device and serve as untreated controls. The arthropods are observed for knockdown at 0.5, 1, 2, 3, 4, 5, and 15 minutes. Mortality counts are taken after 24 hours of PHPG exposure. If at 24 hours mortality is less 90%, additional readings are taken following 48 hours of PHPG exposure. The test samples are exposed to the test environment containing PHPG until a 90% knockdown is achieved. The test samples are provided PHPG emitted from a PHPG producing device in the center of the test chamber. Time frames are recorded for each replicate. Just prior to treatment the arthropods are transferred into the transfer containers. Forty eight hours after treatment, they are removed from the treatment chamber and transferred to recovery containers and covered with screened lids for observation.
(§6) Knockdown occurs when an arthropod cannot right itself when placed on its back but is still able to move at least one body part. The arthropods are then transferred from the treatment chamber to recovery containers. Another knockdown/mortality observation is made 15 minutes later.
(§7) If all ten arthropods are recorded as knocked down or deceased during any observation before 15 minutes have elapsed, subsequent observations are not made. Mortality counts are made at 24 hours, and 48 hours or sooner (if applicable). All dead arthropods are confirmed by probing or agitation to make sure that they are unable to move (any that show movement visible to the naked eye are recorded as moribund). Arthropods that can crawl or right themselves when placed on their backs are recorded as being alive.
as §4

[10] = system: Cellar Spiders; settings: PHPG 1.0 ppm
Protocol: as §1, §2, §3, §5, §6, §7, §4

[11] = system: Wolf Spiders; settings: PHPG 1.0 ppm
Protocol: as §1, §2, §3, §5, §6, §7, §4

[12] = system: Fruit Flies; settings: PHPG 0.3 ppm, exposure 72 hours
Protocol: as §1, §2, §3, §5, §6, §7, §4

[13] = system: Tarantula
Protocol: as §1, §2, §3, §5, §6, §7, §4

[14] = system: Termites
Protocol: as §1, §2, §3, §5, §6, §7, §4

[15] = system: House Fly Pupae; settings: PHPG 0.5 ppm
Protocol: as §1, §2, §3, §5, §6, §7, §4

[16] = system: Deer Ticks; settings: PHPG 0.6 ppm
Protocol: as §1, §2, §3, §5, §6, §7, §4

[17] = system: Bedbugs; settings: PHPG 0.6 ppm
Protocol: as §1, §2, §3, §5, §6, §7, §4

[18] = system: Cockroaches
Protocol: as §1, §2, §3, §5, §6, §7, §4

OO [PHPG, Purified Hydrogen Peroxide Gas]
Percent Killed ([1]; exposure 21 hours, garden house): 100% | Attempt to Flee? ([1]; tried to exit through HVAC vents): Yes | Attempt to Flee? [2]: Yes | Percent Killed ([2]; exposure 2 hours): 100% | Percent Killed ([3]; Lice and nits, PHPG 0.2 ppm, exposure 2 days): 100% | Observations: bedding and other exposed items ([3]; Lice and nits, PHPG 0.2 ppm, within two days): items fully treated within two | Elimination of all signs of lice ([3]; child subject, from initiation of PHPG treatment): lice free within two days | Observations: unhatched yellow jackets in the nest ([4]; 1 day, nest was hatching): jackets in the nest died. | Percent Killed ([4]; Yellow Jackets and Nest, exposure 1 day): 100% | Attempt to Flee? ([4]; Yellow Jackets): Yes | Attempt to Flee? [5]: Yes | Percent Killed ([5]; exposure 3 hours): 70% | Percent Killed ([5]; exposure 60 hours): 100% | Observations ([5]; until they succumbed): All ticks searched for an exit | Live insects observed ([6]; PHPG 0.4 ppm): No live insects were observed | Number of arthropods confirmed dead ([6]; two PHPG generating devices, PHPG 0.4 ppm at 27 hours): 109 | Attempt to Flee? [7]: Yes | Percent Killed ([7]; exposure 24 hours): 100% | Attempt to Flee? [8]: Yes | Observations: final outcome [8]: All died within day | Observations: first deaths within [8]: one hour | Percent Killed ([8]; exposure 24 hours): 100% | Attempt to Flee? [9]: Yes | Observations: order of death [9]: exit. Smallest ants died first. | Percent Killed ([9]; exposure 24 Hours): 15% | Observations: ants collected in areas where fresh air was seeping into the chamber and remained inactive ([9]; when unable to flee): When unable 50% collected | Attempt to Flee? [10]: Yes | Observations: smallest spiders died within [10]: one hour. Larger spiders | Percent Killed ([10]; exposure 24 Hours): 33% | Attempt to Flee? [11]: Yes | Observations [11]: Very susceptible; and | Percent Killed ([11]; exposure 1 hour): 100% | Percent Killed [12]: 100% | Attempt to Flee? ([13]; Tarantula, PHPG 0.6 ppm): No | Percent Killed ([13]; Tarantula, PHPG 0.6 ppm, exposure 24 hours): 0% | Observations ([13]; Tarantula, PHPG 0.6 ppm, did not react to the gas): Appeared resistant. Did not | Resistance to PHPG ([13]; tarantula spiders, PHPG levels up to 0.6 ppm for 24 hours): resistant | Attempt to Flee? ([14]; PHPG 0.1 ppm, cell continues 'Then went dormant'): Yes, | Percent Killed ([14]; PHPG 0.1 ppm, exposure 24 hours): 100% | Observations ([14]; very low exposure (PHPG 0.1 ppm), sought shelter): went dormant. Larger | Observations: hatching ([15]; 100 pupae expected to hatch within 3 days, within one week): within 3 days. Did not hatch | Percent Killed ([15]; House Fly Pupae, exposure 7 days): 100% | Attempt to Flee? [16]: Yes | Percent Killed ([16]; exposure 3 hours): 70% | Percent Killed ([16]; exposure 60 hours): 100% | Observations ([16]; until they succumbed): All ticks searched for an exit | Observations: nymphs ([17]; Bedbug nymphs hatched from immature eggs): Nymphs died in seconds. | Observations: all bedbugs reacted within ([17]; Bedbugs): fifteen seconds. | Observations: final outcome ([17]; Bedbugs): All died over time. | Percent Killed ([17]; Bedbugs, exposure 3 hours): 50% | Percent Killed ([17]; Bedbugs, exposure 60 hours): 100% | Attempt to Flee? ([17]; Bedbugs, cell continues 'Went Dormant'): No, | Attempt to Flee? ([18]; Cockroaches, PHPG 0.6 ppm): No | Percent Killed ([18]; Cockroaches, PHPG 0.6 ppm, exposure 24 Hours): 0% | Observations ([18]; Cockroaches, low level of PHPG (0.6 ppm), did not react to the gas): Appeared resistant at low | Resistance to PHPG ([18]; adult cockroaches, PHPG levels up to 0.6 ppm for 24 hours): resistant
